These results are taken from patent publication US9814704B2, “Substituted pyrrolo[2,3-b]pyridines as MLK inhibitors” (The University of Rochester, priority 2008, dated 2017).

One may read the pIC50 as the negative decadic logarithm of the IC50, by convention in mol/L.

One data set concerns the target MLK3 (Homo sapiens (Human), UniProt Q16584). Put plainly: Radiometric Filter Plate MLK3 Assay. Particulars: read-out: MK3 IC50. The class given is biochemical. How it is done: Radiometric Filter Plate MLK3 Assay
After a twenty minute incubation, the reactions were washed through filter plates and read on a scintillation counter. Results are shown in Table 4 below, in which +++ indicates ≦0.1 μM, ++ indicates >0.1 μM and ≦1 μM, and + indicates >1 μM.

Data set [1] is described as follows: Pharmacokinetic Evaluation in Mice. The class given is in vivo. The arrangement: unit not given here. Particulars: single intravenous (IV) injection at 10 mg/kg, CL57 BL/6 mice, brain homogenate. How it is done:
Pharmacokinetic Evaluation in Mice
Several compounds disclosed herein were evaluated in a standard murine pharmacokinetic model.
Compounds were dissolved in either 5% DMSO, 40% PEG400, and 55% saline (pH=8) or […], 40% PEG400, and 55% (20% HP-β-CD in deionized water; pH=8) to yield a nominal concentration of 2 mg/mL for intravenous administration. Compounds were administered via a single intravenous (IV) injection in CL57 BL/6 mice at 10 mg/kg in DMSO/PEG400 solution. Three mice in each group were used for blood and brain collection at each time point. Blood samples (300 μL) were collected via the retro-orbital vein predose and at 5 min, 0.25, 0.50, 1, 2, 4, 6, 8, and 24 hours postdose. Blood samples were placed into tubes containing sodium heparin and centrifuged under refrigerated conditions at 8000 rpm for 6 minutes to separate plasma from the samples. The brain of each animal was collected after the final blood collection. The whole tissue was harvested, excised and rinsed by saline, dried by filter paper, and then placed into one tube per tissue per animal. All samples were stored at −20° C. until bioanalysis.
Compound concentrations in plasma and brain homogenate were determined using a high performance liquid chromatography/mass spectrometry (HPLC/MS/MS) method (Agilent 1100 series HPLC, AB Inc. API4000 triple-quadrupole with an ESI interface and Analyst 1.4 software).
Results in the form of area under the time-versus-concentration curve (AUC) are given below in Table 5.

Where [2] appears, read: 200 ng (130 nM) MLK3, 1 μM inactive MKK7b, 2 μM cold ATP (Km), 33P ATP, twenty minute incubation.

Each structure is given as a SMILES string. pIC50: −log10 of the molar value. Like-named read-outs stand apart in the source and are kept apart here. Bounds are passed on as bounds.

MLK3, sequence (Q16584 whole entry): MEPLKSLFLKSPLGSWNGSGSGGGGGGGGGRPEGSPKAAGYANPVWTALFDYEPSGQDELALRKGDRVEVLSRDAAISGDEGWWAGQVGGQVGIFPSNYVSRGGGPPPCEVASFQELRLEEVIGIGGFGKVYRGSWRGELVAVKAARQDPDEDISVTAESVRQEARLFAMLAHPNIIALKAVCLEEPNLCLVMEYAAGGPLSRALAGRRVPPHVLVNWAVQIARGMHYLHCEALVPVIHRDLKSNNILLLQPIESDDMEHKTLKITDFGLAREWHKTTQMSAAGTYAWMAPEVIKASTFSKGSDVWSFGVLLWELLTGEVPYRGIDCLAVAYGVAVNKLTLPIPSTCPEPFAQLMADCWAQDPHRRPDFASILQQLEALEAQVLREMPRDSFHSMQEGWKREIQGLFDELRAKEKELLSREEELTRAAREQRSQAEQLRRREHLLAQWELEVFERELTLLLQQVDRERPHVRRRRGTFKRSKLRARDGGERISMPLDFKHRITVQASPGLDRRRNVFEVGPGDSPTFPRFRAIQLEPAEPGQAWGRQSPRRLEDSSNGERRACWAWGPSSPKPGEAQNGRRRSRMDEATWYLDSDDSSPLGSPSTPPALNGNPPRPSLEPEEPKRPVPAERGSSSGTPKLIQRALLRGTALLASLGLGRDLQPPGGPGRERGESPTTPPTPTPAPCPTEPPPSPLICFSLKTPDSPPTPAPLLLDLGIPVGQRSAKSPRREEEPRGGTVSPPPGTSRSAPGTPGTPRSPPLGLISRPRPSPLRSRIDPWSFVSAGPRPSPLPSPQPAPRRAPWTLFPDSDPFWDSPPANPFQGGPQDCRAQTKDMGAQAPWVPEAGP

Consider `CN1CCN(Cc2ccc(-c3cnc4[nH]cc(-c5ccc6[nH]ccc6c5)c4c3)cc2)CC1` [Example 32, 3-(1H-indol-5-yl)-5-(4-((4-methylpiperazin-1-yl)methyl)phenyl)-1H-pyrrolo[2,3-b]pyridine], for which, on MLK3, the pIC50 is above 7.00. In addition, the “AUC Brain” value in data set [1] is listed as “+ (+ indicates ≧500)”.

As to `COc1cc(-c2cnc3[nH]cc(-c4ccc5[nH]ccc5c4)c3c2)cc(OC)c1OC` [Example 1, 3-(1H-indol-5-yl)-5-(3,4,5-trimethoxyphenyl)-1H-pyrrolo[2,3-b]pyridine], on MLK3, the pIC50 is 6.00 to 7.00. Further, the “AUC Brain” value in data set [1] is on record as “+ (+ indicates ≧500)”.

Regarding `COc1cc(-c2cnc3[nH]cc(-c4ccc(N)nc4)c3c2)cc(OC)c1OC` [Example 18, 5-(5-(3,4,5-trimethoxyphenyl)-1H-pyrrolo[2,3-b]pyridin-3-yl)pyridin-2-amine], on MLK3 (setting [2]), the pIC50 was above 7.00. Further, in data set [1], the “AUC Brain” value is given as “− (− indicates <500)”.

With `Nc1ncc(-c2cnc3[nH]cc(-c4ccc5[nH]ccc5c4)c3c2)cn1` [Example 9, 5-(3-(1H-indol-5-yl)-1H-pyrrolo[2,3-b]pyridin-5-yl)pyrimidin-2-amine], the pIC50 at MLK3 (setting [2]) was above 7.00. Also, the “AUC Brain” value in data set [1] is “+ (+ indicates ≧500)”.

As to `COc1cc(-c2cnc3[nH]cc(-c4cnc(N)nc4)c3c2)cc(OC)c1OC` [Example 17, 5-(5-(3,4,5-trimethoxyphenyl)-1H-pyrrolo[2,3-b]pyridin-3-yl)pyrimidin-2-amine], the pIC50 on MLK3 (setting [2]) is above 7.00. The “AUC Brain” value in data set [1] is recorded as “− (− indicates <500)”.

Regarding `Nc1ccc(-c2cnc3[nH]cc(-c4ccc5[nH]ccc5c4)c3c2)cn1` [Example 4, 5-(3-(1H-indol-5-yl)-1H-pyrrolo[2,3-b]pyridin-5-yl)pyridin-2-amine], at MLK3 (setting [2]), the pIC50 was above 7.00. Besides, the “AUC Brain” value in data set [1] is “− (− indicates <500)”.
